Key:
Assay type in all cases: in vivo
Ctenocephalides felis [1] = test: Ctenocephalides felis in vitro contact test with adult cat fleas; conditions: application rate 5 μg/cm^2 (=500 g/ha), after 48 h
Procedure: For the coating of the test tubes, 9 mg of active ingredient are first dissolved in 1 ml of acetone p.a. and then diluted to the desired concentration with acetone p.a. 250 μl of the solution are distributed homogeneously on the inner walls and the base of a 25 ml glass tube by turning and rocking on an orbital shaker (rocking rotation at 30 rpm for 2 h). With 900 ppm of active ingredient solution and internal surface area 44.7 cm^2, given homogeneous distribution, an area-based dose of 5 μg/cm^2 is achieved.
After the solvent has evaporated off, the tubes are populated with 5-10 adult cat fleas (Ctenocephalides felis), sealed with a perforated plastic lid and incubated in a horizontal position at room temperature and ambient humidity. After 48 h, efficacy is determined. To this end, the tubes are stood upright and the fleas are knocked to the base of the tube. Fleas which remain motionless at the base or move in an uncoordinated manner are considered to be dead or moribund.
100% efficacy means that all the fleas were dead or moribund. 0% efficacy means that no fleas were harmed.

Rhipicephalus sanguineus = Rhipicephalus sanguineus in vitro contact test with adult brown dog ticks; conditions: application rate 5 μg/cm^2 (=500 g/ha), after 48 h
Procedure: For the coating of the test tubes, 9 mg of active ingredient are first dissolved in 1 ml of acetone p.a. and then diluted to the desired concentration with acetone p.a. 250 μl of the solution are distributed homogeneously on the inner walls and base of a 25 ml test tube by turning and rocking on an orbital shaker (rocking rotation at 30 rpm for 2 h). With 900 ppm active ingredient solution and internal surface 44.7 cm^2, given homogeneous distribution, an area-based dose of 5 μg/cm^2 is achieved.
After the solvent has evaporated off, the tubes are populated with 5-10 adult dog ticks (Rhipicephalus sanguineus), sealed with a perforated plastic lid and incubated in a horizontal position in the dark at room temperature and ambient humidity. After 48 h, efficacy is determined. To this end, the ticks are knocked to the floor of the tube and incubated on a hotplate at 45-50° C. for not more than 5 min. Ticks which remain motionless on the floor or move in such an uncoordinated manner that they are unable to deliberately avoid the heat by climbing upwards are considered to be dead or moribund.
100% efficacy means that all the ticks were dead or moribund. 0% efficacy means that none of the ticks had been harmed.

Boophilus microplus = Boophilus microplus injection test; conditions: application rate 20 μg/animal, assessed after 7 days, engorged adult female cattle ticks
Procedure: (§1) Solvent: dimethyl sulfoxide
To produce a suitable active ingredient formulation, 10 mg of active ingredient are mixed with 0.5 ml of solvent and the concentrate is diluted to the desired concentration with solvent.
1 μl of the active ingredient solution is injected into the abdomen of 5 engorged adult female cattle ticks (Boophilus microplus). The animals are transferred into dishes and kept in a climate-controlled room.
Efficacy is assessed after 7 days by laying of fertile eggs. Eggs which are not visibly fertile are stored in a climate-controlled cabinet until the larvae hatch after about 42 days. An efficacy of 100% means that none of the ticks has laid any fertile eggs; 0% means that all the eggs are fertile.

Ctenocephalides felis [2] = test: Ctenocephalides felis oral test; conditions: application rate 100 ppm in citrated cattle blood, after 2 days, adult cat fleas
Procedure: as §1
To produce a suitable active ingredient formulation, 10 mg of active ingredient are mixed with 0.5 ml of dimethyl sulfoxide. Dilution with citrated cattle blood gives the desired concentration.
About 20 unfed adult cat fleas (Ctenocephalides felis) are placed into a chamber which is closed at the top and bottom with gauze. A metal cylinder whose bottom end is closed with parafilm is placed onto the chamber. The cylinder contains the blood/active ingredient formulation, which can be imbibed by the fleas through the parafilm membrane.
After 2 days, the kill in % is determined. 100% means that all of the fleas have been killed; 0% means that none of the fleas have been killed.

Musca domestica = Musca domestica test; conditions: application rate 100 ppm, after 2 days, adult houseflies
Procedure: as §1
(§2) To produce a suitable active ingredient formulation, 10 mg of active ingredient are mixed with 0.5 ml of dimethyl sulfoxide, and the concentrate is diluted with water to the desired concentration.
Vessels containing a sponge treated with sugar solution and the active ingredient formulation of the desired concentration are populated with 10 adult houseflies (Musca domestica).
After 2 days, the kill in % is determined. 100% means that all of the flies have been killed; 0% means that none of the flies have been killed.

Myzus persicae [3] = test: Myzus persicae oral test; conditions: 120 h, application rate 4 ppm, after 5 days, read-out: efficacy (aphids killed)
Procedure: To produce a suitable active ingredient formulation, 1 part by weight of active ingredient is dissolved with the stated parts by weight of solvent and made up to the desired concentration with water.
50 μl of the active ingredient preparation are transferred into microtitre plates and made up to a final volume of 200 μl with 150 μl of IPL41 insect medium (33%+15% sugar). Subselog Puently, the plates are sealed with parafilm, which a mixed population of green peach aphids (Myzus persicae) within a second microtitre plate is able to puncture and imbibe the solution.
(§3) After 5 days, the efficacy in % is determined. 100% means that all the aphids have been killed; 0% means that no aphids have been killed.

Myzus persicae [4] = test: Myzus persicae spray test; conditions: foliar, 120 h, application rate 100 g/ha, after 5 days, Chinese cabbage leaf discs, read-out: efficacy (aphids killed)
Procedure: To produce a suitable active ingredient formulation, 1 part by weight of active ingredient is dissolved with the specified parts by weight of solvent and made up to the desired concentration with water containing an emulsifier concentration of 1000 ppm. To produce further test concentrations, the formulation is diluted with emulsifier-containing water.
Discs of Chinese cabbage leaves (Brassica pekinensis) infested by all stages of the green peach aphid (Myzus persicae) are sprayed with an active ingredient formulation of the desired concentration.
as §3

Lucilia cuprina = Lucilia cuprina test; conditions: application rate 100 ppm, after 2 days, L1 larvae
Procedure: as §1, §2
About 20 L1 larvae of the Australian sheep blowfly (Lucilia cuprina) are transferred into a test vessel containing minced horsemeat and the active ingredient formulation of the desired concentration.
After 2 days, the kill in % is determined. 100% means that all the larvae have been killed; 0% means that no larvae have been killed.

Structure (SMILES) | efficacy (fleas dead or moribund) (Ctenocephalides felis [1]) [%] | efficacy (ticks dead or moribund) (Rhipicephalus sanguineus) [%] | efficacy (no laying of fertile eggs) (Boophilus microplus) [%] | efficacy (kill in %) (Ctenocephalides felis [2]) [%] | efficacy (kill in %) (Musca domestica) [%] | pest or weed control at 4 ppm (Myzus persicae [3]) [%] | pest or weed control at 100 g/ha (Myzus persicae [4]) [%] | efficacy (kill in %) (Lucilia cuprina) [%]
CCS(=O)(=O)c1c(-c2nc3cc(C(F)(F)F)ncc3n2C)nn2c1CC(C)CC2 (stereo not drawn) [Example I-05] | 100 | 100 | 100 | 95 | 80 | 100 | 100 | 
CCS(=O)(=O)c1c(-c2nc3cc(C(F)(F)F)ncc3n2C)nn2c1CCCC2 [Example I-02] |  |  |  | 90 | 80 | 100 | 90 | 100
